This note sets out measurements from patent US20230255954A1, “INTERLEUKIN 33 (IL-33) INHIBITION FOR TREATMENT OF CANCER, FIBROSIS AND INFLAMMATION” (The General Hospital Corporation, priority 2020, published 2023).

Assay [1] deals with DNFB-treated WT and IL-33KO mice skin. The assay is described as follows: DNFB chronic skin inflammation with SB431542. The following applies: 22 days. Type of assay: in vivo, mouse. As to the method: Four- to six-week-old male and female mice were shaved on their abdomen and sensitized to 50 μL 0.5% 1-Fluoro-2,4-dinitrobenzene (DNFB, Millipore Sigma, St. Louis, Mo., catalog no. 42085) dissolved in acetone plus olive oil at a 3:1 ratio (refer to as acetone). Two days after first sensitization, mice were re-sensitized to 50 μL 0.25% DNFB on their abdomen. After 5 days, mice were challenged with 100 μL 0.25% DNFB on their back skin, which was repeated three times per week for 22 days. The skin rash was monitored over the duration of the study.
(§1) To inhibit the TGF-β/SMAD signaling pathway (Mordasky Markell et al, 2010), mice were treated with 10 μM SB431542 (Millipore Sigma, catalog no. 301836-41-9) in 200 μL acetone or 200 μL acetone alone to their back skin twice a week. SB431542/acetone treatments were given in between TPA or DNFB doses.
Tissue samples were collected and fixed in 4% paraformaldehyde (Millipore Sigma, catalog no. P6148) overnight at 4° C. Next, tissues were dehydrated in ethanol, processed and embedded in paraffin. 5 μm sections paraffin-embedded tissues were placed on slides, deparaffinized and stained with H&E. For immunohistochemistry, antigen retrieval was performed in 500 μL of antigen unmasking solution (VECTOR Laboratories, Burlingame, Calif., catalog no. H3300) diluted in 50 mL water using Cuisinart pressure cooker for 20 min at high pressure. Slides were washed three times for three minutes each in 1×TBS with 0.025% Triton X-100. Sections were blocked with 1% bovine serum albumin (Thermo Fisher Scientific, catalog no. BP1600) and 5% goat serum (Millipore Sigma, catalog no. G9023) for 1 hour. Slides were stained overnight at 4° C. with a primary antibody diluted in TBS containing 1% BSA (Table A). The following day, slides were washed as above and incubated in 100 μL biotinylated secondary antibody (VECTOR Laboratories, catalog no. PK-6200) for 30 min. After washing, slides were incubated with 100 μL mixture of reagent A and B from VECTASTAIN Elite ABC universal kit Peroxidase (VECTOR Laboratories, catalog no. PK-6200) for 30 min. After washing, slides were incubated with 100 μL ImmPACT DAB chromogen stating (VECTOR Laboratories, catalog no. SK-4105) for a few minutes. Finally, slides were dehydrated in ethanol and xylene and mounted with a coverslip using 3 drops of mounting media. For immunofluorescence staining, rehydrated tissue sections were permeated with 1×PBS supplemented with 0.2% Triton X-100 for 5 min. Antigen retrieval was performed similar to immunohistochemistry. Slides were washed three times for three minutes each in 1×PBS with 0.1% TWEEN20. […] The number of positive cells was counted in randomly selected high power field (HPF, 200× magnification) images in a blinded manner by a trained investigator. […]

Assay [2] deals with Pam212 cells. The assay is described as follows: Ki67+ proliferating Pam212 cells. Type of assay: cell-based, mouse.
The subject of assay [3] is DMBA/TPA skin tumors in WT and K14-IL33tg,ST2KO mice. The assay is described as follows: DMBA/TPA skin carcinogenesis protocol with SB431542. Type of assay: in vivo, mouse. The procedure:
For DMBA/DNFB carcinogenesis protocol (Ameri et al., 2019), four- to six-week-old male and female mice were shaved on their abdomen and sensitized to 50 μL 0.5% DNFB. Two days later, mice were re-sensitized to 50 μL 0.25% DNFB on the abdomen. Five days later, mice were treated with […] 7,12-dimethylbenz(a)anthracene (DMBA, Millipore Sigma, catalog no. D3254) in 200 μL acetone on their back skin. After a week, mice were challenged with 100 μL 0.25% DNFB on their back skin, which was continued three times per week for 30 weeks at the dosage that maintained mild erythematous dermatitis in WT mice. Skin rash and tumor development were monitored and recorded weekly over the duration of the study. For DMBA/TPA carcinogenesis protocol, mice were treated with 6 μg 12-O-tetradecanoylphorbol-13-acetate (TPA, Millipore Sigma, catalog no. P1585) in 200 μL acetone instead of DNFB in DMBA/DNFB protocol without abdominal sensitization.
as §1
Tissue samples were collected and fixed in 4% paraformaldehyde (Millipore Sigma, catalog no. P6148) overnight at 4° C. Next, tissues were dehydrated in ethanol, processed and embedded in paraffin. 5 μm sections paraffin-embedded tissues were placed on slides, deparaffinized and stained with H&E. For immunohistochemistry, antigen retrieval was performed in 500 μL of antigen unmasking solution (VECTOR Laboratories, Burlingame, Calif., catalog no. H3300) diluted in 50 mL water using Cuisinart pressure cooker for 20 min at high pressure. Slides were washed three times for three minutes each in 1×TBS with 0.025% Triton X-100. Sections were blocked with 1% bovine serum albumin (Thermo Fisher Scientific, catalog no. BP1600) and 5% goat serum (Millipore Sigma, catalog no. G9023) for 1 hour. Slides were stained overnight at 4° C. with a primary antibody diluted in TBS containing 1% BSA (Table A). The following day, slides were washed as above and incubated in 100 μL biotinylated secondary antibody (VECTOR Laboratories, catalog no. PK-6200) for 30 min. After washing, slides were incubated with 100 μL mixture of reagent A and B from VECTASTAIN Elite ABC universal kit Peroxidase (VECTOR Laboratories, catalog no. PK-6200) for 30 min. After washing, slides were incubated with 100 μL ImmPACT DAB chromogen stating (VECTOR Laboratories, catalog no. SK-4105) for a few minutes. Finally, slides were dehydrated in ethanol and xylene and mounted with a coverslip using 3 drops of mounting media. For immunofluorescence staining, rehydrated tissue sections were permeated with 1×PBS supplemented with 0.2% Triton X-100 for 5 min. Antigen retrieval was performed similar to immunohistochemistry. Slides were washed three times for three minutes each in 1×PBS with 0.1% TWEEN20. Sections were blocked with 1% bovine serum albumin and 5% goat serum for 1 hour. The slides were stained overnight at 4° C. with primary antibodies (Table A). The following day, slides were washed as above and incubated for two hours at room temperature with secondary antibodies conjugated to fluorochromes (Table A). Next, slides were incubated with 1:2000 DAPI (Thermo Fisher Scientific, catalog no. D3571) for five minutes at room temperature, then washed as above. Slides were mounted with Prolong Gold Antifade Reagent (Thermo Fisher Scientific, catalog no. P36930). The number of positive cells was counted in randomly selected high power field (HPF, 200× magnification) images in a blinded manner by a trained investigator. Clinical samples were reviewed by a pathologist.

The subject of assay [4] is Pam212 cells. The assay is described as follows: Pam212 proliferation assay (CellTiter 96). It is filed as cell-based, mouse. The following applies: 10 μM SB431542 for 3 hours; to the same degree as knocking down IL-33. As to the method:
Pam212 cells were transfected with siIl33 (QIAGEN, catalog no. SI00870443) or siCon (QIAGEN, catalog no. 1022076) using Lipofectamine RNAiMax Transfection reagent (Thermo Fisher Scientific, catalog no. 13778075) according to the manufacturer's instructions. The following day, cells were divided into 96 well plates with a serial dilution of cells. The next day, the cells were treated with 5 nM of TGF-β (Cell Signaling Technology, catalog no. 5231LF) or 10 μM of SB431542 for 3 hours. After incubation, the proliferation assay was performed by CellTiter 96 Non-radioactive Cell proliferation assay (Promega, Madison, Wis., catalog no. G4001) according to the manufacturer's instructions. O.D was recorded as the measure of cell proliferation in each well. Absorbance (O.D) reading is directly proportional to the cell proliferation in each well.

[5] abbreviates: DMBA/TPA-treated K14-IL33tg,ST2KO skin, vs acetone-treated controls.
Where [6] appears, read: K14-IL33tg,ST2KO mice, DMBA/TPA, vs acetone-treated.
Where [7] appears, read: WT mice, 30-week DMBA/TPA treatment.

Structures are written as SMILES.

Turning to `NC(=O)c1ccc(-c2nc(-c3ccc4c(c3)OCO4)c(-c3ccccn3)[nH]2)cc1` [SB431542], in assay [1] (DNFB-treated IL-33KO mice), the epidermal hyperplasia entry was “no impact” and the keratinocyte proliferation entry is “no impact”. In addition, the keratinocyte proliferation entry in assay [1] (DNFB-treated WT mice) was “markedly decreased”. In addition, in assay [1] (DNFB-treated WT mice, 10 μM SB431542 in 200 μL acetone twice a week), the epidermal hyperplasia result is listed as “markedly decreased”. Further, the “Ki67+ proliferating cells” value in the assay with Pam212 cells [2] was “significantly reduced”. For the same compound, the “apoptosis (cleaved caspase-3)” value in assay [3] (DMBA/TPA-treated K14-IL33tg,ST2KO skin) is “without impacting”. In addition, in assay [3] (setting [5]), the “number of Ki67+ epidermal keratinocytes” value is given as “reduced” and the “number of p-SMAD2/3+ epidermal keratinocytes” value is listed as “reduced”. Moreover, in assay [3] (setting [6]), the “number of skin tumors” value is given as “significantly fewer” and the tumor latency entry was “markedly increased”. The skin tumor size entry in assay [3] (K14-IL33tg,ST2KO mice, DMBA/TPA, vs controls) is recorded as “smaller”. Besides, in assay [3] (setting [7]), the endpoint tumor volumes result is on record as “no significant impact”, the skin tumor onset result was “no significant impact” and the “tumor numbers over time” value is given as “no significant impact”. The Pam212 cell proliferation entry in the assay on Pam212 cells [4] is recorded as “reduced”.
